Values after ≈ are worked out from the molar mass of the structure shown. Read-outs that look alike come from different tables or passages of the source.

In data set [1] the test system is B. subtilis dfrA and folC CRISPRi knockdown mutants. The format is cell-based. To be noted: growth (OD600) after 14 h relative to DMSO.
For data set [2], the system named is E. coli NCM3722. The data set is described as follows: Minimum inhibitory concentration assay. The format is cell-based. To be noted: Escherichia coli.
For data set [3], the system named is E. coli lptD4213 ΔthyA. The data set is described as follows: Growth of wild-type and ΔthyA cells with thymine. The format is cell-based. To be noted: excess thymine in the medium.
Data set [4] has as its system E. coli lptD4213. The data set is described as follows: Membrane potential and permeability assay. The settings on record: E. coli lptD4213, 15 min treatment.
Data set [5] concerns mammalian cells (HEK293, HK-2, HLF, PBMC).
Data set [6] concerns N. gonorrhoeae ATCC 700825. The data set can be described thus: Neisseria gonorrhea vaginal infection model. The format is in vivo, BALB/c mice. To be noted: 10 mg/kg i.v. at 2 and 14 h post-infection, CFUs at 26 h; p < 0.05 vs vehicle.
A short description of data set [7]: Mouse liver microsomal stability. The format is in vitro ADME. The settings on record: 2 μM, 0.5 mg/mL microsomes, NADPH and UDPGA, 1 hour; compared to verapamil.
A short description of data set [8]: Maximal tolerated dose in mice. The format is in vivo. To be noted: intravenously.
The test system of data set [9] is PBMC. The data set is described as follows: Mammalian cell cytotoxicity. The format is cell-based. The settings on record: 72 hours.
For data set [10], the system named is N. gonorrhoeae. The data set can be described thus: Minimum inhibitory concentration assay. To be noted: bacterial culture.
In data set [11] the test system is E. coli lptD4213. The data set is described as follows: Minimum inhibitory concentration assay. The settings on record: for MIC: concentration printed as 1× MIC.
For data set [12], the system named is S. aureus MRSA USA300. The data set is described as follows: Serial passaging assay to evolve resistance. The format is cell-based, Staphylococcus aureus. To be noted: S. aureus MRSA USA300, 25 days, sub-lethal concentrations.
For data set [13], the system named is S. aureus MRSA USA300 persister cells. The data set can be described thus: S. aureus MRSA persister cell assay. The format is cell-based, Staphylococcus aureus. The settings on record: 2 h treatment.
Data set [14] has as its system S. aureus MRSA USA300. The data set can be described thus: Minimum inhibitory concentration assay.
For data set [15], the target named is E. coli dihydrofolate reductase (FolA) (Escherichia coli, UniProt P0ABQ4). The data set can be described thus: Dihydrofolate reductase activity assay. The format is biochemical.
E. coli dihydrofolate reductase (FolA), sequence (P0ABQ4 whole entry): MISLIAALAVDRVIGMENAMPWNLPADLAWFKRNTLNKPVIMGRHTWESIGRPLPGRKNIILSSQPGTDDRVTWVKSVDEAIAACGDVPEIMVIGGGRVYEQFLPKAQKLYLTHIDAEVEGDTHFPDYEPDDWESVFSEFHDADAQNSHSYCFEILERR
The subject of data set [16] is A. baumannii AB17978. The data set can be described thus: Minimum inhibitory concentration assay.
Data set [17] has as its system B. subtilis 168. The data set can be described thus: Minimum inhibitory concentration assay. The format is cell-based.
Data set [18] relates to G. mellonella. The data set can be described thus: Galleria mellonella host toxicity. The format is in vivo. The settings on record: injection at four times the MIC toward A. baumannii.
The subject of data set [19] is HEK293. The format is cell-based.
Data set [20] relates to B. subtilis. The data set is described as follows: Isolation of resistant mutants by plating. The format is cell-based. To be noted: ~10^8 CFUs.
The subject of data set [21] is A. baumannii AB17978. The data set is described as follows: Serial passaging assay to evolve resistance. The format is cell-based, Acinetobacter baumannii.
In data set [22] the test system is P. aeruginosa. The data set is described as follows: Minimum inhibitory concentration assay.
Data set [23] deals with HLF. The format is cell-based.
Data set [24] relates to A. baumannii AB17978. The data set can be described thus: Galleria mellonella killing assay. The format is in vivo. To be noted: lethal dose of A. baumannii AB17978; 67 μg/larva; p < 0.001.
For data set [25] the following is noted: animals; ref Gobbetti et al., 2012; Strande et al., 2007; cited from earlier work.
In data set [26] the target is dihydrofolate reductase (FolA) (Escherichia coli, UniProt P0ABQ4). The data set is described as follows: Thermal proteome profiling. To be noted: E. coli lptD4213 intact cells and cell lysates. The format is binding.
dihydrofolate reductase (FolA), sequence (P0ABQ4 whole entry): as above
In data set [27] the test system is folate metabolite pools in E. coli NCM3722. The data set is described as follows: Metabolomics of folate metabolite pools. The format is cell-based. The settings on record: 13.9 μg/mL (1× MIC), 15 min.
Data set [28] has as its system MRSA USA300. The data set can be described thus: Isolation of resistant mutants by plating on drug agar. The format is cell-based, Staphylococcus aureus. To be noted: ~10^8 CFU on agar with 25 μg/mL SCH-79797 (4X MIC).
In data set [29] the test system is E. coli lptD4213. The data set is described as follows: Colony forming units assay. The settings on record: E. coli lptD4213, 3-h treatment, 2× MIC. The format is cell-based.
In data set [30] the test system is HK-2. The format is cell-based.
For data set [31], the system named is E. cloacae. The data set can be described thus: Minimum inhibitory concentration assay.

With `COc1cc(Cc2cnc(N)nc2N)cc(OC)c1OC` [trimethoprim], the “sensitivity of dfrA and folC CRISPRi knockdowns” value in data set [1] is given as “hypersensitive”. Further, in [2], inhibition of growth (MIC) required 0.15 µg/mL (≈ 0.517 µM). Also, the “sensitivity of ΔthyA versus wild-type cells” value in data set [3] is “led to trimethoprim resistance”. Also, the “membrane potential and permeability (DiOC2(3) and TO-PRO-3 staining)” value (from here on “membrane potential and permeability”) in [4] was “no significant changes in DiOC2(3) and TO-PRO-3 staining”.
Regarding `N#CC(C#N)=NNc1cccc(Cl)c1` [CCCP], the “membrane potential and permeability” value in [4] is “expected shifts in both DiOC2(3) and TO-PRO-3 staining”.
Consider polymyxin B, for which the “membrane potential and permeability” value in data set [4] is “expected shifts in both DiOC2(3) and TO-PRO-3 staining”.
As for `CO[C@H]1/C=C/O[C@@]2(C)Oc3c(C)c(O)c4c(O)c(c(/C=N/N5CCN(C)CC5)c(O)c4c3C2=O)NC(=O)/C(C)=C\C=C\[C@H](C)[C@H](O)[C@@H](C)[C@@H](O)[C@@H](C)[C@H](OC(C)=O)[C@@H]1C` [rifampicin], the “membrane potential and permeability” value in data set [4] is listed as “do not shift DiOC2(3) or TO-PRO-3 staining”.
Consider `Nc1nc(N)c2c(ccc3c2ccn3Cc2ccc(-c3ccccc3)cc2)n1` [IRS-16], for which, in [5], the “increase of therapeutic window relative to SCH-79797” value is listed as over 100 fold. Further, the adverse effects result (male CD-1 mice, single i.v. dose 15 mg/kg) was “no adverse effects”. The “time at concentrations above the N. gonorrhoeae MIC” value (mice, 15 mg/kg i.v., MIC 0.03 μg/mL) is reported as about 48 h. In addition, the half-life (mouse, in vivo, iv, 15 mg/kg) is 15.8 h. Also, the “vaginal load of N. gonorrhoeae (CFU)” value in [6] was “significantly reduced the vaginal load”. Also, the “sensitivity of dfrA and folC CRISPRi knockdowns” value in data set [1] is listed as “hypersensitive”. Further, the “stability in mouse liver microsomes” value in [7] is “extremely stable”. Moreover, the “maximal tolerated dose (MTD)” value in data set [8] is on record as 15 mg/kg. The “MIC against PBMC” value in data set [9] was “greater than the maximal drug concentrations tested”. Moreover, the results for the MIC in data set [10] and in [11] were 0.03 µg/mL (≈ 0.0821 µM) and 0.02 µg/mL (≈ 0.0547 µM), respectively. Moreover, the “membrane potential and permeability” value in data set [4] is “disrupted membrane permeability and polarity”.
`CO[C@@H]1[C@@H](OC(N)=O)[C@@H](O)[C@H](Oc2ccc3c(O)c(NC(=O)c4ccc(O)c(CC=C(C)C)c4)c(=O)oc3c2C)OC1(C)C` [novobiocin]: the “resistance on serial passaging” value in [12] is recorded as “resistance gradually increased”. Further, the “membrane potential and permeability” value in data set [4] is reported as “do not shift DiOC2(3) or TO-PRO-3 staining”.
Regarding `CC(C)c1ccccc1` [isopropylbenzene], in [1], the “sensitivity of dfrA and folC CRISPRi knockdowns” value was “no effect”. In addition, in data set [4], the “membrane potential and permeability” value is “disrupts both membrane polarity and permeability”.
daptomycin: the “viability of persister cells (CFU)” value in data set [13] was “did not reduce the number of CFUs”.
With `Nc1nc(N)c2c(ccc3[nH]ccc32)n1` [IRS-10], the “sensitivity of dfrA and folC CRISPRi knockdowns” value in data set [1] is reported as “maintains the ability to inhibit folate metabolism”. In addition, the “potency compared to the parent molecule SCH-79797” value in data set [14] (MRSA USA300) was “decreased the potency”; in [16], “decreased the potency”; in [17] (B. subtilis 168), “decreased the potency”; in data set [11], “increased the potency”. Also, the IC50 in [15] (read-out: IC50 against FolA, 60 μM NADPH and 100 μM DHF, Hill fit) came out at 0.065 ± 0.019 µM. Moreover, the “membrane potential and permeability” value in data set [4] is “does not disrupt membrane polarity or permeability”. Further, the MIC in data set [11] came out at 0.4 µg/mL (≈ 2.01 µM).
In the case of nisin, the “resistance on serial passaging” value in [12] is reported as “resistance gradually increased”. Besides, the “membrane potential and permeability” value in [4] was “expected shifts in both DiOC2(3) and TO-PRO-3 staining”.
As to `CC(C)c1ccc(Cn2ccc3c4c(N)nc(NC5CC5)nc4ccc32)cc1` [SCH-79797, N3-cyclopropyl-7-[[4-(1-methylethyl)phenyl]methyl]-7H-pyrrolo[3,2-f]quinazoline-1,3-diamine], the host toxicity entry in [18] is “did not result in higher host toxicity than the solvent-only control”. Besides, the “growth inhibition of mammalian cells relative to antibacterial dose” value in data set [19], in data set [23] and in [30] was “at doses comparable to the doses needed to kill bacteria” each time. Besides, in [1], the “sensitivity of dfrA and folC CRISPRi knockdowns” value is reported as “sensitized”. Besides, the “isolation of resistant mutants on plating” value in data set [20] is given as “unable to isolate SCH-79797-resistant mutants”; in data set [28] it was “unable to isolate stable SCH-79797-resistant mutants”. Also, the “resistance on serial passaging” value is “resistance remained constant” in data set [21] and “no SCH-79797-resistant mutants emerged” in data set [12]. For the same molecule, the MIC is 6.3 µg/mL (≈ 17 µM) in data set [14] (Staphylococcus aureus, MRSA|USA300); “greater the maximal drug concentrations tested” in [22]; 13.9 µg/mL (≈ 37.4 µM) in data set [2]; 3.1 µg/mL (≈ 8.34 µM) in [17] (Bacillus subtilis, 168); “greater the maximal drug concentrations tested” in [31]. The IC50 in data set [15] was found to be 8.6 ± 3 µM. The “survival of infected larvae” value in data set [24] is listed as “significantly prolonged the survival”. Also, the safely tolerated dose result in data set [25] was “at least 5 mg/kg”. Further, the “thermal stability of dihydrofolate reductase (FolA)” value in [26] was “significantly shifted the thermal stability”. In data set [27], the “rise of 7,8-dihydrofolate (DHF) level compared to untreated cells” value is recorded as ~ 10 fold. Also, the “viability of persister cells (CFU)” value in data set [13] is reported as “robustly killed these persister cells”. Further, the “sensitivity of ΔthyA versus wild-type cells” value in data set [3] is on record as “no change in sensitivity”. For the same molecule, the “bactericidal activity (CFU)” value in data set [29] is “potent and rapid bactericidal activity”. Moreover, the “membrane potential and permeability” value in data set [4] was “significant defects in both membrane polarization and permeability”.

(Values after publication PMC7780349 (Cell, 2020).)
